Consider 3 molecules from PubChem BioAssay AID318 (DTP/NCI, 2004).

Several values for one entry are separate records, joined by “and”; a condition that tells them apart may be missing. Identical values can stand only once. Toxic doses and inconclusive results are not listed.

This assay deals with BDF1 mice, P815 leukemia ip, survival T/C. Description: NCI In Vivo Anticancer Drug Screen. Data for tumor model P815 Mast Cell Leukemia (Ascitic) (intraperitoneal) in B6D2F1 (BDF1) mice. The note with it: endpoint: survival time, mean or median, higher = longer survival. The procedure: The antitumor activity of compounds was measured in mice bearing transplantable tumors. Survival or tumor size were measured and the results are expressed as the measurement made in the treated group (T) divided by the measurement made in the vehicle treated control group (C). The tumor model used in this assay is P815 Mast Cell Leukemia (Ascitic) (intraperitoneal) in B6D2F1 (BDF1) mice

For the molecule `N=C(N)c1ccc(Nc2ccc(C(=N)N)cc2)cc1`, the T/C reads like this: (dose: 3.0 mg/kg/injection, schedule: Q01DX010 (ip), vehicle: saline) 94 % of control and 100 % of control; (dose: 6.0 mg/kg/injection, schedule: Q01DX010 (ip), vehicle: saline) 100 % of control; (dose: 12.0 mg/kg/injection, schedule: Q01DX010 (ip), vehicle: saline) 88 % of control and 100 % of control; (dose: 24.0 mg/kg/injection, schedule: Q01DX010 (ip), vehicle: saline) 87 % of control.
Consider `O=C(Nc1ccc(C2=NCCN2)cc1)c1ccc(C(=O)Nc2ccc(C3=NCCN3)cc2)c(Cl)c1`, for which the T/C was 109 % of control (dose: 1.5 mg/kg/injection, schedule: Q01DX015 (ip), vehicle: carboxymethylcellulose (CMC)); 182 % of control (dose: 6.0 mg/kg/injection, schedule: Q01DX015 (ip), vehicle: carboxymethylcellulose (CMC)); 176 % of control (dose: 9.0 mg/kg/injection, schedule: Q01DX015 (ip), vehicle: carboxymethylcellulose (CMC)).
With `COS(C)(=O)=O`, the T/C is, setting by setting: (dose: 12.5 mg/kg/injection, schedule: Q01DX010 (ip), vehicle: saline) 100 % of control; (dose: 25.0 mg/kg/injection, schedule: Q01DX010 (ip), vehicle: saline) 100 % of control; (dose: 50.0 mg/kg/injection, schedule: Q01DX010 (ip), vehicle: saline) 100 % of control.
